Laboratory results published in ChEMBL document CHEMBL4342421, “Current scenario of tetrazole hybrids for antibacterial activity” (Eur J Med Chem, 2019).
≈ marks a conversion by molar mass, not a printed value.

What was measured:
Staphylococcus aureus [1] = assay: Antimicrobial activity against Staphylococcus aureus ATCC 25923 assessed as zone of inhibition at 100 ug/ml after 24 hrs by disc diffusion method; type: functional; conditions: ATCC 25923, 24 h, read-out: IZ
Klebsiella pneumoniae = assay: Antimicrobial activity against Klebsiella pneumoniae ATCC 700603 assessed as zone of inhibition at 100 ug/ml after 24 hrs by disc diffusion method; type: functional; conditions: ATCC 700603, 24 h, read-out: IZ
Streptococcus agalactiae = assay: Antimicrobial activity against Streptococcus agalactiae 55118 assessed as zone of inhibition at 100 ug/ml after 24 hrs by disc diffusion method; type: functional; conditions: Streptococcus agalactiae, 55118, 24 h; read-out: IZ
Escherichia coli [2] = assay: Antimicrobial activity against Escherichia coli assessed as zone of inhibition at 50 ug/ml; type: functional; conditions: read-out: IZ
Staphylococcus aureus [3] = assay: Antimicrobial activity against Staphylococcus aureus assessed as zone of inhibition at 50 ug/ml; type: functional; conditions: read-out: IZ
Aspergillus niger [4] = assay: Antifungal activity against Aspergillus niger assessed as zone of inhibition at 50 ug/ml; type: functional; conditions: read-out: IZ
Candida albicans [5] = assay: Antifungal activity against Candida albicans assessed as zone of inhibition at 50 ug/ml; type: functional; conditions: read-out: IZ
Escherichia coli [6] = assay: Antimicrobial activity against Escherichia coli; type: functional
Bacillus subtilis [7] = assay: Antimicrobial activity against Bacillus subtilis; type: functional
Salmonella typhimurium = assay: Antimicrobial activity against Salmonella typhimurium; type: functional, Salmonella enterica subsp. enterica serovar Typhimurium; conditions: Salmonella enterica
Priestia megaterium = assay: Antimicrobial activity against Bacillus megaterium; type: functional
Micrococcus luteus = assay: Antibacterial activity against Micrococcus luteus; type: functional
SiHa = assay: Growth inhibition of human SiHa cells; type: functional
MDA-MB-231 = assay: Growth inhibition of human MDA-MB-231 cells; type: functional
PANC-1 = assay: Growth inhibition of human PANC1 cells; type: functional
Pseudomonas aeruginosa [8] = assay: Antimicrobial activity against Pseudomonas aeruginosa; type: functional
Staphylococcus aureus [9] = assay: Antimicrobial activity against Staphylococcus aureus; type: functional
Bacillus cereus [10] = assay: Antimicrobial activity against Bacillus cereus; type: functional
Candida albicans [11] = assay: Antifungal activity against Candida albicans; type: functional
Staphylococcus aureus [12] = assay: Antimicrobial activity against Staphylococcus aureus assessed as zone of inhibition at 250 ug/ml; type: functional; conditions: read-out: IZ
Bacillus cereus [13] = assay: Antimicrobial activity against Bacillus cereus assessed as zone of inhibition at 250 ug/ml; type: functional; conditions: read-out: IZ
Escherichia coli [14] = assay: Antimicrobial activity against Escherichia coli assessed as zone of inhibition at 250 ug/ml; type: functional; conditions: read-out: IZ
Pseudomonas aeruginosa [15] = assay: Antimicrobial activity against Pseudomonas aeruginosa assessed as zone of inhibition at 250 ug/ml; type: functional; conditions: read-out: IZ
Candida albicans [16] = assay: Antifungal activity against Candida albicans assessed as zone of inhibition at 250 ug/ml; type: functional; conditions: read-out: IZ
Aspergillus niger [17] = assay: Antifungal activity against Aspergillus niger assessed as zone of inhibition at 250 ug/ml; type: functional; conditions: read-out: IZ
Aspergillus niger [18] = assay: Antifungal activity against Aspergillus niger; type: functional
Bacillus subtilis [19] = assay: Antimicrobial activity against Bacillus subtilis NCIM 2250 after 48 hrs by NCCLS protocol based method; type: functional; conditions: NCIM 2250, 48 h
Escherichia coli [20] = assay: Antimicrobial activity against Escherichia coli ATCC 25922 after 48 hrs by NCCLS protocol based method; type: functional; conditions: ATCC 25922, 48 h
Aspergillus niger [21] = assay: Antifungal activity against Aspergillus niger NCIM 545 after 48 hrs by NCCLS protocol based method; type: functional; conditions: NCIM 545, 48 h
Candida albicans [22] = assay: Antifungal activity against Candida albicans MTCC 277 after 48 hrs by NCCLS protocol based method; type: functional; conditions: MTCC 277, 48 h

Compound: CCCCn1nnnc1Sc1c(OC)nc(N)nc1OC
- zone of inhibition at 100 µg/mL (Staphylococcus aureus [1]): 10 to 24 mm
- zone of inhibition at 100 µg/mL (Klebsiella pneumoniae): 10 to 24 mm
- zone of inhibition at 100 µg/mL (Streptococcus agalactiae): 10 to 24 mm

Compound: O=C(/C=C/c1ccc(Br)cc1)n1nnnc1-c1ccccc1
- zone of inhibition at 50 µg/mL (Escherichia coli [2]): 8 to 15 mm
- zone of inhibition at 50 µg/mL (Staphylococcus aureus [3]): 8 to 15 mm
- zone of inhibition at 50 µg/mL (Aspergillus niger [4]): 8 to 15 mm
- zone of inhibition at 50 µg/mL (Candida albicans [5]): 8 to 15 mm

Compound: O=C(O)c1cn(C2CC2)c2cc(N3CCN(C(=O)CCSc4nnnn4Cc4ccccc4)CC3)c(F)cc2c1=O
- MIC (Escherichia coli [6]): 15.6 µg/mL (≈ 27 µM)
- MIC (Bacillus subtilis [7]): 15.6 µg/mL (≈ 27 µM)
- MIC (Salmonella typhimurium): 15.6 µg/mL (≈ 27 µM)
- MIC (Priestia megaterium): 15.6 µg/mL (≈ 27 µM)
- MIC (Micrococcus luteus): 15.6 µg/mL (≈ 27 µM)
- GI50 (SiHa): ≤ 1000 nM
- GI50 (MDA-MB-231): ≤ 1000 nM
- GI50 (PANC-1): ≤ 1000 nM

Compound: O=C(O)c1cn(C2CC2)c2cc(N3CCN(C(=O)CCSc4nnnn4-c4ccc(Br)cc4)CC3)c(F)cc2c1=O
- MIC (Escherichia coli [6]): 15.6 µg/mL (≈ 24.3 µM)
- MIC (Bacillus subtilis [7]): 15.6 µg/mL (≈ 24.3 µM)
- MIC (Salmonella typhimurium): 15.6 µg/mL (≈ 24.3 µM)
- MIC (Priestia megaterium): 15.6 µg/mL (≈ 24.3 µM)
- MIC (Micrococcus luteus): 15.6 µg/mL (≈ 24.3 µM)
- GI50 (SiHa): ≤ 1000 nM
- GI50 (MDA-MB-231): ≤ 1000 nM
- GI50 (PANC-1): ≤ 1000 nM

Compound: c1ccc(-c2nnnn2-c2nc3ccccc3s2)cc1
- MIC (Escherichia coli [6]): 50 to 100 µg/mL (≈ 179 to 358 µM)
- MIC (Pseudomonas aeruginosa [8]): 50 to 100 µg/mL (≈ 179 to 358 µM)
- MIC (Staphylococcus aureus [9]): 50 to 100 µg/mL (≈ 179 to 358 µM)
- MIC (Bacillus cereus [10]): 50 to 100 µg/mL (≈ 179 to 358 µM)
- MIC (Candida albicans [11]): 50 to 100 µg/mL (≈ 179 to 358 µM)
- zone of inhibition at 250 µg/mL (Staphylococcus aureus [12]): 16 to 26 mm
- zone of inhibition at 250 µg/mL (Bacillus cereus [13]): 16 to 26 mm
- zone of inhibition at 250 µg/mL (Escherichia coli [14]): 16 to 26 mm
- zone of inhibition at 250 µg/mL (Pseudomonas aeruginosa [15]): 16 to 26 mm
- zone of inhibition at 250 µg/mL (Candida albicans [16]): 16 to 26 mm
- zone of inhibition at 250 µg/mL (Aspergillus niger [17]): 16 to 26 mm
- MIC (Aspergillus niger [18]): 50 to 100 µg/mL (≈ 179 to 358 µM)

Compound: CCOC(=O)C(C#N)C(c1cc2ccc(C)cc2n2nnnc12)P(=O)(OCC)OCC (stereo unspecified)
- MIC (Bacillus subtilis [19]): 10 to 20 µg/mL (≈ 22.5 to 44.9 µM)
- MIC (Escherichia coli [20]): 10 to 20 µg/mL (≈ 22.5 to 44.9 µM)
- MIC (Aspergillus niger [21]): 10 to 20 µg/mL (≈ 22.5 to 44.9 µM)
- MIC (Candida albicans [22]): 10 to 20 µg/mL (≈ 22.5 to 44.9 µM)

Compound: CCn1nnnc1SCCC(=O)N1CCN(c2cc3c(cc2F)c(=O)c(C(=O)O)cn3C2CC2)CC1
- MIC (Escherichia coli [6]): 15.6 µg/mL (≈ 30.3 µM)
- MIC (Bacillus subtilis [7]): 15.6 µg/mL (≈ 30.3 µM)
- MIC (Salmonella typhimurium): 15.6 µg/mL (≈ 30.3 µM)
- MIC (Priestia megaterium): 15.6 µg/mL (≈ 30.3 µM)
- MIC (Micrococcus luteus): 15.6 µg/mL (≈ 30.3 µM)
- GI50 (SiHa): ≤ 1000 nM
- GI50 (MDA-MB-231): ≤ 1000 nM
- GI50 (PANC-1): ≤ 1000 nM

Compound: O=C(/C=C/c1ccccc1Cl)n1nnnc1-c1ccccc1
- zone of inhibition at 50 µg/mL (Escherichia coli [2]): 8 to 15 mm
- zone of inhibition at 50 µg/mL (Staphylococcus aureus [3]): 8 to 15 mm
- zone of inhibition at 50 µg/mL (Aspergillus niger [4]): 8 to 15 mm
- zone of inhibition at 50 µg/mL (Candida albicans [5]): 8 to 15 mm

Compound: CN(C)c1ccc(-c2nnnn2-c2nc3ccccc3s2)cc1
- MIC (Escherichia coli [6]): 50 to 100 µg/mL (≈ 155 to 310 µM)
- MIC (Pseudomonas aeruginosa [8]): 50 to 100 µg/mL (≈ 155 to 310 µM)
- MIC (Staphylococcus aureus [9]): 50 to 100 µg/mL (≈ 155 to 310 µM)
- MIC (Bacillus cereus [10]): 50 to 100 µg/mL (≈ 155 to 310 µM)
- MIC (Candida albicans [11]): 50 to 100 µg/mL (≈ 155 to 310 µM)
- zone of inhibition at 250 µg/mL (Staphylococcus aureus [12]): 16 to 26 mm
- zone of inhibition at 250 µg/mL (Bacillus cereus [13]): 16 to 26 mm
- zone of inhibition at 250 µg/mL (Escherichia coli [14]): 16 to 26 mm
- zone of inhibition at 250 µg/mL (Pseudomonas aeruginosa [15]): 16 to 26 mm
- zone of inhibition at 250 µg/mL (Candida albicans [16]): 16 to 26 mm
- zone of inhibition at 250 µg/mL (Aspergillus niger [17]): 16 to 26 mm
- MIC (Aspergillus niger [18]): 50 to 100 µg/mL (≈ 155 to 310 µM)

Compound: CC/C(=C(\c1ccccc1)c1ccc(OCCN(C)C)cc1)c1ccccc1 [TAMOXIFEN]
- GI50 (SiHa): 120 to 240 nM
- GI50 (MDA-MB-231): 120 to 240 nM
- GI50 (PANC-1): 120 to 240 nM
